Measured values from patent publication US20100284912A1, “HOMOGENIZATION OF A RADIOPHARMACEUTICAL USING SONIFICATION AND/OR ROTOR-STATOR TECHNOLOGY TO PRODUCE A HOMOGENOUS SUSPENSION, EMULSION, MIXTURE OR SOLID SUSPENSION OF IMMISCIBLE INGREDIENTS” (BRACCO DIAGNOSTICS INC., priority 2007, published 2010).

Test: Thermo Gravimetric Analyzer (TGA) % volatiles (water)
Type: physicochemical
Conditions: 10° C./min to 110° C., isothermal hold 60 min
Experimental: 10 mg was collected for each sample. A heating ramp of 10° C./min from room temperature to 110° C. with an isothermal hold at 110° C. for 60 min was used in the analysis. Table 4 below depicts the % volatiles (water) which were found versus the theoretical values.

Row | SMILES | % Volatiles Found
1 | O=P([O-])([O-])O.[K+].[K+] [Potassium Phosphate Dibasic] | 2.7%
2 | O=S([O-])([O-])=S.[Na+].[Na+] [Sodium Thiosulfate] | 33%
